The values that follow come from patent publication US10231954B2, “Neurodegenerative therapies” (LYTIX BIOPHARMA AS, priority 2014, dated 2019).

Read-outs that look alike come from different tables or passages of the source.

Common to all, as to type: biochemical
The target of one assay is T1, TLK1 (Homo sapiens, UniProt Q9UKI8).
T1 sequence (Q9UKI8 1-766): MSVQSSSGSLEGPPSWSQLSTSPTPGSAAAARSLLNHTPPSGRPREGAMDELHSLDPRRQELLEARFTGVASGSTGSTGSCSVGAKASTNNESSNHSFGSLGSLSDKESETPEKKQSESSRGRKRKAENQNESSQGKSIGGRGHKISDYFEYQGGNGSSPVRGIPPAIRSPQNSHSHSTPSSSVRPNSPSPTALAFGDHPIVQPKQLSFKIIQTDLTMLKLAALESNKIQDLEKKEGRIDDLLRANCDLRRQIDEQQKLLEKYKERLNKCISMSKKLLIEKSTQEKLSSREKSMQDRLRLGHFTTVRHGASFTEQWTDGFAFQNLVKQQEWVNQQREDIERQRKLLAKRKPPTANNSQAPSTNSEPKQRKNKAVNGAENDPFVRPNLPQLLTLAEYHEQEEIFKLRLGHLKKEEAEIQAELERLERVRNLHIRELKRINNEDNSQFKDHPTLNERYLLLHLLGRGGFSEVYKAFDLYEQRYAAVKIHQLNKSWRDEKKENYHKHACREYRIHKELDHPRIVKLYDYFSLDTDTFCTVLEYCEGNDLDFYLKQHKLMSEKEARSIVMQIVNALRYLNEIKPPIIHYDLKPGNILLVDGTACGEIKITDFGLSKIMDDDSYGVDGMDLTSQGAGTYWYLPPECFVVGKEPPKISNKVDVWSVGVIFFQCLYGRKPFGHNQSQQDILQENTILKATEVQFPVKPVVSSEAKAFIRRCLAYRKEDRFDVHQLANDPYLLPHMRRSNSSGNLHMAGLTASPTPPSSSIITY
The assay can be described thus: Kinase profiling TLK1. The note with it: for remaining activity at 100 µM: read-out: residual kinase activity, TLK1. The text has this:
(§1) Any value less that 25 is considered to be highly significant inhibition.

The next assay deals with HIPK3 (Homo sapiens, UniProt Q9H422). The assay is described as follows: Kinase profiling HIPK3. The note with it: for remaining activity at 100 µM: read-out: residual kinase activity, HIPK3.
Description: as §1

A further assay has as its target CSK (Homo sapiens, UniProt P41240). The assay is described as follows: Kinase profiling CSK. The note with it: for remaining activity at 100 µM: read-out: residual kinase activity, CSK.
Description: as §1

A further assay concerns the target T2, ZAP70 (Homo sapiens, UniProt P43403).
T2 sequence (P43403 1-619): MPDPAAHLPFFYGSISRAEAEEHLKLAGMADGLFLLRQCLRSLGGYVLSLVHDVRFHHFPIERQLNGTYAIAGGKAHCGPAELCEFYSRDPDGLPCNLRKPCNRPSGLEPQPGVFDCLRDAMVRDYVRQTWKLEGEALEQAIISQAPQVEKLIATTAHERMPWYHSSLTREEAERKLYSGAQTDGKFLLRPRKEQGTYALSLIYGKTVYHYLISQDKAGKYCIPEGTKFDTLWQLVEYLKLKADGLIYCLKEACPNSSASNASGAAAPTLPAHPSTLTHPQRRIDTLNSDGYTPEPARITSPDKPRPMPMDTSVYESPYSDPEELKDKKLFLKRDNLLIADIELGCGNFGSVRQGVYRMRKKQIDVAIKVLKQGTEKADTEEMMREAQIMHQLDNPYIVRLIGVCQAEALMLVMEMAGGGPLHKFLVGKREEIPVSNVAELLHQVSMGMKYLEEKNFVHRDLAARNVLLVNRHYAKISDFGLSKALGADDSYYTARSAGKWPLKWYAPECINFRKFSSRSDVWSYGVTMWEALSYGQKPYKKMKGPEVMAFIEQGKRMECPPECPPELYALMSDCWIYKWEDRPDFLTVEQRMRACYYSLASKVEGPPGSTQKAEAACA
The assay is described as follows: Kinase profiling ZAP70. The note with it: for remaining activity at 100 µM: read-out: residual kinase activity, ZAP70.
Description: as §1

The target in another assay is T3, MAP4K3 (Homo sapiens, UniProt Q8IVH8).
T3 sequence (Q8IVH8 1-894): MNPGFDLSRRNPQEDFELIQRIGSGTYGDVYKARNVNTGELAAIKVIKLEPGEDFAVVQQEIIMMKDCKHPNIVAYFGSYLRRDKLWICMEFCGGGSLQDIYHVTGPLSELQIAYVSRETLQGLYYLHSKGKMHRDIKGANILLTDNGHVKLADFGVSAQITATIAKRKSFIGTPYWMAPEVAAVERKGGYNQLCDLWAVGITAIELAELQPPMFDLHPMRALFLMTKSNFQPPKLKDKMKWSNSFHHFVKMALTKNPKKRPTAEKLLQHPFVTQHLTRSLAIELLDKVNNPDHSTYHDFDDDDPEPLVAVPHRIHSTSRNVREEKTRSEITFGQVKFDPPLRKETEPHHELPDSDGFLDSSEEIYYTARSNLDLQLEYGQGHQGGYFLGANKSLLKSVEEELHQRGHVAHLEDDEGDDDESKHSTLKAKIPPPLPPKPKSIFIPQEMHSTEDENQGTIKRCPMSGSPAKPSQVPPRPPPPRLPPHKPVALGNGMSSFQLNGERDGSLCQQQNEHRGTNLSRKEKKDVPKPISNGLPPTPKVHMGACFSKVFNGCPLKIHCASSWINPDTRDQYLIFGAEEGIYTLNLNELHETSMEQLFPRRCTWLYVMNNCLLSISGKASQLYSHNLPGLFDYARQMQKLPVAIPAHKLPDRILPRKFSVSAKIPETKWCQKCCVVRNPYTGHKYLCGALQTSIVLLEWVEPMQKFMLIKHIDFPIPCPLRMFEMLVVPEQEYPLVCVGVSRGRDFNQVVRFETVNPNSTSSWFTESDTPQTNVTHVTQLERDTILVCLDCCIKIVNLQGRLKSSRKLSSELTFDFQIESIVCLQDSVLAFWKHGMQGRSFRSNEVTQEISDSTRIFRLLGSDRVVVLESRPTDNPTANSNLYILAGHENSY
The assay is described as follows: Kinase profiling MAP4K3. The note with it: for remaining activity at 100 µM: read-out: residual kinase activity, MAP4K3.
Description: as §1

[1] abbreviates: 100 micromolar inhibitor concentration, 100 is no change.
The mark [2] stands for this setting: 100 micromolar inhibitor, 100 = no change.

Sequence of CSK (P41240 whole entry, species assumed): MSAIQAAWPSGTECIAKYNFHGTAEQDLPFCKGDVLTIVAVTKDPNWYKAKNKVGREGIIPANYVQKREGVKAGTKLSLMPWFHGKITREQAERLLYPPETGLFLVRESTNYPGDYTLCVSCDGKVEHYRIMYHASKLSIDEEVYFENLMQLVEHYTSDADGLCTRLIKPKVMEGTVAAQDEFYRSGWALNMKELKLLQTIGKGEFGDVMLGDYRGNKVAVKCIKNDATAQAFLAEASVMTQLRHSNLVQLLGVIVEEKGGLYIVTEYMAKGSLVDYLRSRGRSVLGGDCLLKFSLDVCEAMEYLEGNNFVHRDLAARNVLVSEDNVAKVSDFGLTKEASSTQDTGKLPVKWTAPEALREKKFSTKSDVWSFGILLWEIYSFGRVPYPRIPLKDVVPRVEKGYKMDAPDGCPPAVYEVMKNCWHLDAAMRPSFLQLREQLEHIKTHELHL
Sequence of HIPK3 (Q9H422 whole entry, species assumed): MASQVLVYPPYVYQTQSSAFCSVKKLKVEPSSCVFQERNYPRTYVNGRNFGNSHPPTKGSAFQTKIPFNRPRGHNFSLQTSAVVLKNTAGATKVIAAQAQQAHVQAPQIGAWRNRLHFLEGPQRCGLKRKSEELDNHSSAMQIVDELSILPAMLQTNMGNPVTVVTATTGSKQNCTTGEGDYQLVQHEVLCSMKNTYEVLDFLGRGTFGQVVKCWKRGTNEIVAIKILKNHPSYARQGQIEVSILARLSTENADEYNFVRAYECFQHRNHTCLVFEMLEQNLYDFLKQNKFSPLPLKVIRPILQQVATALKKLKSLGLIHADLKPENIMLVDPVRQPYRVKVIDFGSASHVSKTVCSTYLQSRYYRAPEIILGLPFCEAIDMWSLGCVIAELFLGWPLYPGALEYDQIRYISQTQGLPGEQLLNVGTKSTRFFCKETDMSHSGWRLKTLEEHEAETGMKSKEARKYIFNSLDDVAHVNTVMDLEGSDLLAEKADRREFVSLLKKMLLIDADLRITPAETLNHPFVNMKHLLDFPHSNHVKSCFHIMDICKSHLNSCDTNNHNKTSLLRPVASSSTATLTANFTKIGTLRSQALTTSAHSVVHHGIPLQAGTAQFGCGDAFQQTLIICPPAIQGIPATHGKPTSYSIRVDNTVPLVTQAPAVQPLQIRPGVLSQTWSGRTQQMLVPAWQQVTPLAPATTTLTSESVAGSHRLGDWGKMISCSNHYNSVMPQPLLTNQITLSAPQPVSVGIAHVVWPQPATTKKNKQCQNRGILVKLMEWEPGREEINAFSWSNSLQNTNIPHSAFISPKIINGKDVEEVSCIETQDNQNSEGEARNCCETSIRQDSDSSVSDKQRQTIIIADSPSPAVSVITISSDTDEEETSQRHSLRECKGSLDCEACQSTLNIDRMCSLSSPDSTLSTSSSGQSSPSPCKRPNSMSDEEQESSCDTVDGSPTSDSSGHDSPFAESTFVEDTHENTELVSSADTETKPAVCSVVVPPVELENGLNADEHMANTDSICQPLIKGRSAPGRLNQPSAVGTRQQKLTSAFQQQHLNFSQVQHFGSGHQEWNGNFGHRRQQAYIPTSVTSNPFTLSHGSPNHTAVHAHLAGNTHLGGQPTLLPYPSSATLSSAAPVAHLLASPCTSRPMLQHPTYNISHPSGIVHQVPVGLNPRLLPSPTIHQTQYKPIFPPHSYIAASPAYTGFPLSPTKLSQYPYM

For `CC(=O)Nc1nc2cc(O)ccc2s1` [Compound 01-66, N-(5-hydroxybenzo[d]thiazol-2-yl)acetamide], the remaining activity at 100 µM at TLK1 came to 92%; on HIPK3, 37%; at CSK it was 92%; on ZAP70, 113%.
In the case of `CC(=O)Nc1nc2ccc(O)cc2s1` [Compound 01-71], the remaining activity at 100 µM at TLK1 (setting [1]) is 45%; on HIPK3 (setting [1]) it was 27%; at CSK (setting [1]), 78%; at ZAP70 (setting [1]), 126%.
As for `CC(=O)Nc1nc2ccc(C(F)(F)F)cc2s1` [Compound 01-90], the remaining activity at 100 µM on TLK1 (setting [1]) came out at 82%; on HIPK3 (setting [1]), 69%; at MAP4K3 (setting [1]) it was 65%; on CSK (setting [1]), 61%; at ZAP70 (setting [1]) it was 122%.
The like results for `CC(=O)Nc1nc2ccc(C#N)cc2s1` [Compound 01-94] were, in that order, 53%, 38%, 52%, 83% and 118%.
In the case of `CC(=O)Nc1cccc(NC(=O)c2nc3ccc(O)cc3s2)c1` [Compound 03-07, N-(3-acetamidophenyl)-6-hydroxybenzo[d]thiazole-2-carboxamide], the remaining activity at 100 µM on TLK1 (setting [2]) came out at 108%; on HIPK3 (setting [2]), 81%; at MAP4K3 (setting [2]) it was 63%; on CSK (setting [2]) it was 105%; at ZAP70 (setting [2]), 94%.
Regarding `O=C(Nc1nc2cc(O)ccc2s1)c1ccncc1` [Compound 03-11], the “residual kinase activity, TLK1” value on TLK1 (setting [1]) is on record as 95. Moreover, at HIPK3 (setting [1]), the “residual kinase activity, HIPK3” value stood at 106. Further, at MAP4K3 (setting [1]), the “residual kinase activity, MAP4K3” value turned out to be 73. The “residual kinase activity, CSK” value at CSK (setting [1]) came out at 94. In addition, the “residual kinase activity, ZAP70” value at ZAP70 (setting [1]) worked out at 89.
Take `O=C(Nc1nc2ccc(O)cc2s1)c1ccccn1` [Compound 03-12]: the “residual kinase activity, TLK1” value at TLK1 (setting [1]) is given as 96. In addition, the “residual kinase activity, HIPK3” value at HIPK3 (setting [1]) came out at 84. The “residual kinase activity, MAP4K3” value at MAP4K3 (setting [1]) stood at 54. Also, the “residual kinase activity, CSK” value at CSK (setting [1]) is recorded as 101. Moreover, the “residual kinase activity, ZAP70” value on ZAP70 (setting [1]) stood at 91.
The like results for `O=C(Nc1nc2cc(O)ccc2s1)c1ccccn1` [Compound 03-13] were, in that order, 99, 82, 67, 95 and 105.
With `COc1ccc2sc(NC(C)=O)nc2c1` [Compound 03-21], the remaining activity at 100 µM on TLK1 (setting [1]) was 97%; at HIPK3 (setting [1]) it was 86%; at MAP4K3 (setting [1]), 75%; on CSK (setting [1]), 104%; at ZAP70 (setting [1]), 98%.
On to `CC(=O)Nc1nc2ccccc2s1` [Compound 03-32], for which the “residual kinase activity, TLK1” value on TLK1 (setting [1]) is 92. Moreover, the “residual kinase activity, HIPK3” value at HIPK3 (setting [1]) is 78. The “residual kinase activity, MAP4K3” value at MAP4K3 (setting [1]) is 90. The “residual kinase activity, CSK” value at CSK (setting [1]) amounted to 83. For the same molecule, the “residual kinase activity, ZAP70” value at ZAP70 (setting [1]) is reported as 111.
Take `O=C(Nc1nc2cc(O)ccc2s1)c1cccnc1` [Compound 03-33]: the “residual kinase activity, TLK1” value on TLK1 (setting [1]) amounted to 97. Besides, at HIPK3 (setting [1]), the “residual kinase activity, HIPK3” value is 102. For the same molecule, the “residual kinase activity, MAP4K3” value on MAP4K3 (setting [1]) was found to be 69. For the same molecule, at CSK (setting [1]), the “residual kinase activity, CSK” value is on record as 88. The “residual kinase activity, ZAP70” value at ZAP70 (setting [1]) was found to be 110.
The like results for `O=C(Nc1nc2ccc(O)cc2s1)c1ccccc1` [Compound 03-60] were, in that order, 74, 38, 56, 69 and 109.
With `CC(=O)Nc1nc2cc(C(F)(F)F)ccc2s1` [Compound 03-73], the remaining activity at 100 µM on TLK1 (setting [1]) stood at 103%; at HIPK3 (setting [1]) it was 106%; on MAP4K3 (setting [1]), 63%; on CSK (setting [1]), 91%; on ZAP70 (setting [1]), 115%.
`CC(=O)Nc1nc2cc(C)ccc2s1` [Compound 03-76]: the “residual kinase activity, TLK1” value on TLK1 (setting [1]) is on record as 106. In addition, the “residual kinase activity, HIPK3” value at HIPK3 (setting [1]) is 79. Also, the “residual kinase activity, MAP4K3” value on MAP4K3 (setting [1]) amounted to 80. For the same molecule, the “residual kinase activity, CSK” value at CSK (setting [1]) amounted to 101. The “residual kinase activity, ZAP70” value at ZAP70 (setting [1]) is listed as 110.
On to `CC(=O)Nc1nc2cc(F)ccc2s1` [Compound 03-77], for which the remaining activity at 100 µM at TLK1 (setting [1]) was 89%; at HIPK3 (setting [1]), 62%; at MAP4K3 (setting [1]), 55%; on CSK (setting [1]), 98%; at ZAP70 (setting [1]) it was 109%.
Turning to `O=C(Nc1nc2ccc(O)cc2s1)c1ccncc1` [Compound 08-42], the “residual kinase activity, TLK1” value on TLK1 (setting [1]) stood at 97. Moreover, the “residual kinase activity, HIPK3” value at HIPK3 (setting [1]) was found to be 90. The “residual kinase activity, MAP4K3” value at MAP4K3 (setting [1]) turned out to be 48. Moreover, the “residual kinase activity, CSK” value on CSK (setting [1]) was determined as 89. Further, the “residual kinase activity, ZAP70” value at ZAP70 (setting [1]) amounted to 92.
`O=C(Nc1nc2ccc(O)cc2s1)c1cccnc1` [Compound 08-44]: on TLK1 (setting [1]), the “residual kinase activity, TLK1” value stood at 90. Moreover, at HIPK3 (setting [1]), the “residual kinase activity, HIPK3” value stood at 45. For the same molecule, at MAP4K3 (setting [1]), the “residual kinase activity, MAP4K3” value is reported as 56. On CSK (setting [1]), the “residual kinase activity, CSK” value turned out to be 83. Moreover, the “residual kinase activity, ZAP70” value at ZAP70 (setting [1]) is on record as 79.
